As usually defined, the Ki is the equilibrium dissociation constant of an inhibitor or competing ligand from its target.

22 compounds from patent US9273033B2, “Substituted pyridone derivatives as PDE10 inhibitors” (Merck Sharp & Dohme Corp., priority 2012, dated 2016) can be followed below.

The target of the assay is human PDE10A2 (Homo sapiens (Human), UniProt Q9Y233). In words: PDE10 fluorescence polarization (IMAP FP) inhibition assay. Format: biochemical. The conditions noted are these: human PDE10A2, FAM-labeled cAMP substrate, read-out: PDE10A Ki. Here is the method:
The activity of the compounds in accordance with the present invention as PDE10 inhibitors may be readily determined without undue experimentation using a fluorescence polarization (FP) methodology that is well known in the art (Huang, W., et al., J. Biomol Screen, 2002, 7: 215).
In a typical experiment the PDE10 inhibitory activity of the compounds of the present invention was determined in accordance with the following experimental method. PDE10A2 was amplified from human fetal brain cDNA (Clontech, Mountain View, Calif.) using a forward primer corresponding to nucleotides 56-77 of human PDE10A2 (Accession No. AF127480, Genbank Identifier 4894716), containing a Kozak consensus sequence, and a reverse primer corresponding to nucleotides 2406-2413 of human PDE10A2 (Accession No. AF127480, Genbank Identifier 4894716). Amplification with Easy-A polymerase (Stratagene, La Jolla, Calif.) was 95° C. for 2 minutes followed by thirty three cycles of 95° C. for 40 seconds, 55° C. for 30 seconds, and 72° C. for 2 minutes 48 seconds. Final extension was 72° C. for 7 minutes. The PCR product was TA cloned into pcDNA3.2-TOPO (Invitrogen, Carlsbad, Calif.) according to standard protocol. AD293 cells with 70-80% confluency were transiently transfected with human PDE10A2/pcDNA3.2-TOPO using Lipofectamine 2000 according to manufacturer specifications (Invitrogen, Carlsbad, Calif.). Cells were harvested 48 hours post-transfection and lysed by sonication (setting 3, 10×5 sec pulses) in a buffer containing 20 mM HEPES, 1 mM EDTA and protease inhibitor cocktail (Roche). Lysate was collected by centrifugation at 75,000×g for 20 minutes. Supernatant containing the cytoplasmic fraction was used for evaluation of PDE10A2 activity. The fluorescence polarization assay for cyclic nucleotide phosphodiesterases was performed using an IMAP® FP kit supplied by Molecular Devices, Sunnyvale, Calif. (product # R8139). IMAPU technology has been applied previously to phosphodiesterase assays (Huang, W., et al., J. Biomol Screen, 2002, 7: 215). Assays were performed at room temperature in 384-well microtiter plates with an incubation volume of 20.2 μL. Solutions of test compounds were prepared in DMSO and serially diluted with DMSO to yield 8 μL of each of 10 solutions differing by 3-fold in concentration, at 32 serial dilutions per plate. 100% inhibition is determined using a known PDE10 inhibitor, which can be any compound that is present at 5,000 times its Ki value in the assay described as follows, such as papaverine (see Siuciak, et al. Neuropharmacology (2006) 51:386-396; Becker, et al. Behav Brain Res (2008) 186(2):155-60; Threlfell, et al., J Pharmacol Exp Ther (2009) 328(3):785-795), 2-{4-[pyridin-4-yl-1-(2,2,2-trifluoroethyl)-1H-pyrazol-3-yl]phenoxymethyl}quinoline succinic acid or 2-[4-(1-methyl-4-pyridin-4-yl-1H-pyrazol-3-yl)-phenoxymethyl]quinoline succinic acid (see Schmidt, et al. J Pharmacol Exp Ther (2008) 325:681-690; Threlfell, et al., J Pharmacol Exp Ther (2009) 328(3): 785-795). 0% of inhibition is determined by using DMSO (1% final concentrations).
A Labcyte Echo 555 (Labcyte, Sunnyvale, Calif.) is used to dispense 200 nL from each well of the titration plate to the 384 well assay plate. A solution of enzyme (1/1600 dilution from aliquots; sufficient to produce 20% substrate conversion) and a separate solution of FAM-labeled cAMP PDE from Molecular Devices (product # R7506), at a final concentration of 50 nM are made in the assay buffer (10 mM Tris HCl, pH 7.2, 10 mM MgCl2, 0.05% NaN3 0.01% Tween-20, and 1 mM DTT). The enzyme and the substrate are then added to the assay plates in two consecutive additions of 10 μL, and then shaken to mix. The reaction is allowed to proceed at room temperature for 30 minutes. A binding solution is then made from the kit components, comprised of 80% Solution A, 20% Solution B and binding reagent at a volume of 1/600 the total binding solution.
(Polarisation of emitted light reports the rotation of a fluorescent probe.)

SMILES strings stand for the structures.

Sequence of human PDE10A2 (Q9Y233 267-1055): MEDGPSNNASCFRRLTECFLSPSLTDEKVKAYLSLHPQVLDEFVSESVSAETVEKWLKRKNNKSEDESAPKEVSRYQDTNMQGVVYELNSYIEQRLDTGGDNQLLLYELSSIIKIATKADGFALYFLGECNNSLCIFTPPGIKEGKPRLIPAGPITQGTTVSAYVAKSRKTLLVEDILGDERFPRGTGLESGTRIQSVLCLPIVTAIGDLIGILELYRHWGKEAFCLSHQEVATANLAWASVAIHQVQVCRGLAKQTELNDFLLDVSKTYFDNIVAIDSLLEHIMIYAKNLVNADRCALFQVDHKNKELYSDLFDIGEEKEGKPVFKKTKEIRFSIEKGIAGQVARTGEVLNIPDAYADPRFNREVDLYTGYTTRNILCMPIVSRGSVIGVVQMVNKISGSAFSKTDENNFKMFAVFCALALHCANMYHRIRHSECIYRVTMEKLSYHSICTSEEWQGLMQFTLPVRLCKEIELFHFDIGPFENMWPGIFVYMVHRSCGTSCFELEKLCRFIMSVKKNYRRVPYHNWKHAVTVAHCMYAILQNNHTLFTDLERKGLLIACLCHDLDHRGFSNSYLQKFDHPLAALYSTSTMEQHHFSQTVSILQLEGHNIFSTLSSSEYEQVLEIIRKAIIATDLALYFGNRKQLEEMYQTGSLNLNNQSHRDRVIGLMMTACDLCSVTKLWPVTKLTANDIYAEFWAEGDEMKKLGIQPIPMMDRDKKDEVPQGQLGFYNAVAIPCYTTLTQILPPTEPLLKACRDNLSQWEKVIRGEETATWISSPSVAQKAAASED

Take `COc1ccc([C@H]2C[C@@H]2COc2nc(C)ncc2-c2cc(=O)n(C)cc2[S+](C)[O-])nc1` (single isomer, unassigned) [Example 109, 4-(4-(((1S,2S)-2-(5-methoxypyridin-2-yl)cyclopropyl)methoxy)-2-methylpyrimidin-5-yl)-1-methyl-5-(methylsulfinyl)pyridin-2(1H)-one,R or S]: the Ki turned out to be 63.8 nM.

`COc1ccc([C@H]2C[C@@H]2COc2nc(C)ncc2-c2cc(=O)n(C)cc2[S+](C)[O-])nc1` (single isomer, unassigned) [Example 110, 4-(4-(((1S,2S)-2-(5-methoxypyridin-2-yl)cyclopropyl)methoxy)-2-methylpyrimidin-5-yl)-1-methyl-5-(methylsulfinyl)pyridin-2(1H)-one, S or R]: the Ki is 49 nM.

In the case of `COC(=O)Cn1cc(-c2cnc(C)nc2OC[C@H]2C[C@@H]2c2ccc(C)cn2)ccc1=O` [Example 1, methyl 2-(5-(2-methyl-4-(((1S,2S)-2-(5-methylpyridin-2-yl)cyclopropyl)methoxy)pyrimidin-5-yl)-2-oxopyridin-1(2H)-yl)acetate], the Ki worked out at 4.39 nM.

As to `COc1ccc([C@H]2C[C@@H]2COc2nc(C)ncc2-c2ccc(=O)n(C)c2)nc1` [Example 2, 5-(4-(((1S,2S)-2-(5-methoxypyridin-2-yl)cyclopropyl)methoxy)-2-methylpyrimidin-5-yl)-1-methylpyridin-2(1H)-one], the inhibition constant Ki amounted to 1.01 nM.

As for `Cc1ccc([C@H]2C[C@@H]2COc2nc(C)ncc2-c2ccc(=O)n(C)c2C)nc1` [Example 3, 1,6-dimethyl-5-(2-methyl-4-(((1S,2S)-2-(5-methylpyridin-2-yl)cyclopropyl)methoxy)pyrimidin-5-yl)pyridin-2(1H)-one], the Ki turned out to be 0.217 nM.

Consider `CCn1c(C)c(-c2cnc(C)nc2OC[C@H]2C[C@@H]2c2ccc(C)cn2)ccc1=O` [Example 4, 1-ethyl-6-methyl-5-(2-methyl-4-(((1S,2S)-2-(5-methylpyridin-2-yl)cyclopropyl)methoxy)pyrimidin-5-yl)pyridin-2(1H)-one], for which the Ki was 1.95 nM.

For the compound `CCn1cc(-c2cnc(C)nc2OC[C@H]2C[C@@H]2c2ccc(C)cn2)ccc1=O` [Example 5, 1-ethyl-5-(2-methyl-4-(((1S,2S)-2-(5-methylpyridin-2-yl)cyclopropyl)methoxy)pyrimidin-5-yl)pyridin-2(1H)-one], the Ki was 1.1 nM.

`COCCn1cc(-c2cnc(C)nc2OC[C@H]2C[C@@H]2c2ccc(C)cn2)ccc1=O` [Example 6, 1-(2-methoxyethyl)-5-(2-methyl-4-(((1S,2S)-2-(5-methylpyridin-2-yl)cyclopropyl)methoxy)pyrimidin-5-yl)pyridin-2(1H)-one]: the inhibition constant (Ki) was 1.38 nM.

In the case of `COCCn1c(C)c(-c2cnc(C)nc2OC[C@H]2C[C@@H]2c2ccc(C)cn2)ccc1=O` [Example 7, 1-(2-methoxyethyl)-6-methyl-5-(2-methyl-4-(((1S,2S)-2-(5-methylpyridin-2-yl)cyclopropyl)methoxy)pyrimidin-5-yl)pyridin-2(1H)-one], the Ki is 3.06 nM.

For the compound `COn1cc(-c2cnc(C)nc2OC[C@H]2C[C@@H]2c2ccc(C)cn2)ccc1=O` [Example 8, 1-methoxy-5-(2-methyl-4-(((1S,2S)-2-(5-methylpyridin-2-yl)cyclopropyl)methoxy)pyrimidin-5-yl)pyridin-2(1H)-one], the Ki amounted to 2.33 nM.

`Cc1ncc(-c2ccc(=O)n(C(C)C)c2)c(OC[C@H]2C[C@@H]2c2ccc3ccccc3n2)n1` [Example 9, 1-isopropyl-5-(2-methyl-4-(((1S,2S)-2-(quinolin-2-yl)cyclopropyl)methoxy)pyrimidin-5-yl)pyridin-2(1H)-one]: the Ki is 0.014 nM.

Consider `Cc1ncc(-c2ccc(=O)n(-c3ccccc3)c2)c(OC[C@H]2C[C@@H]2c2ccc3ccccc3n2)n1` [Example 10, 5-(2-methyl-4-(((1S,2S)-2-(quinolin-2-yl)cyclopropyl)methoxy)pyrimidin-5-yl)-1-phenylpyridin-2(1H)-one], for which the Ki stood at 0.216 nM.

Take `Cc1ncc(-c2ccc(=O)n(C(F)F)c2)c(OC[C@H]2C[C@@H]2c2ccc3ccccc3n2)n1` [Example 11, 1-(difluoromethyl)-5-(2-methyl-4-(((1S,2S)-2-(quinolin-2-yl)cyclopropyl)methoxy)pyrimidin-5-yl)pyridin-2(1H)-one]: the inhibitory constant (Ki) was 0.048 nM.

As for `COn1cc(-c2cnc(C)nc2OC[C@H]2C[C@@H]2c2ccc3ccccc3n2)ccc1=O` [Example 12, 1-methoxy-5-(2-methyl-4-(((1S,2S)-2-(quinolin-2-yl)cyclopropyl)methoxy)pyrimidin-5-yl)pyridin-2(1H)-one], the Ki was 0.053 nM.

Regarding `Cc1ccc([C@H]2C[C@@H]2COc2nc(C)ncc2-c2ccc(=O)n(C(C)C)c2)nc1` [Example 13, 1-isopropyl-5-(2-methyl-4-(((1S,2S)-2-(5-methylpyridin-2-yl)cyclopropyl)methoxy)pyrimidin-5-yl)pyridin-2(1H)-one], the inhibition constant Ki was found to be 0.823 nM.

For the compound `Cc1ccc([C@H]2C[C@@H]2COc2nc(C)ncc2-c2ccc(=O)n(C(F)F)c2)nc1` [Example 14, 1-(difluoromethyl)-5-(2-methyl-4-(((1S,2S)-2-(5-methylpyridin-2-yl)cyclopropyl)methoxy)pyrimidin-5-yl)pyridin-2(1H)-one], the inhibitory constant (Ki) turned out to be 1.1 nM.

On to `Cc1ccc([C@H]2C[C@@H]2COc2nc(C)ncc2-c2ccc(=O)n(-c3ccccc3)c2)nc1` [Example 15, 5-(2-methyl-4-(((1S,2S)-2-(5-methylpyridin-2-yl)cyclopropyl)methoxy)pyrimidin-5-yl)-1-phenylpyridin-2(1H)-one], for which the Ki is 4.86 nM.

For `CCc1cc(-c2cnc(C)nc2OC[C@H]2C[C@@H]2c2ccc(OC)cn2)cn(C)c1=O` [Example 16, 3-ethyl-5-(4-(((1S,2S)-2-(5-methoxypyridin-2-yl)cyclopropyl)methoxy)-2-methylpyrimidin-5-yl)-1-methylpyridin-2(1H)-one], the Ki was 0.185 nM.

Turning to `COc1ccc([C@H]2C[C@@H]2COc2nc(C)ncc2-c2cc(OC)c(=O)n(C)c2)nc1` [Example 17, 3-methoxy-5-(4-(((1S,2S)-2-(5-methoxypyridin-2-yl)cyclopropyl)methoxy)-2-methylpyrimidin-5-yl)-1-methylpyridin-2(1H)-one], the Ki was 0.151 nM.

As for `COc1ccc([C@H]2C[C@@H]2COc2nc(C)ncc2-c2cc(F)c(=O)n(C)c2)nc1` [Example 18, 3-fluoro-5-(4-(((1S,2S)-2-(5-methoxypyridin-2-yl)cyclopropyl)methoxy)-2-methylpyrimidin-5-yl)-1-methylpyridin-2(1H)-one], the inhibitory constant (Ki) came to 1.29 nM.

Turning to `COc1ccc([C@H]2C[C@@H]2COc2nc(C)ncc2-c2ccc(=O)n(-c3ccccc3)c2)nc1` [Example 19, 5-(4-(((1S,2S)-2-(5-methoxypyridin-2-yl)cyclopropyl)methoxy)-2-methylpyrimidin-5-yl)-1-phenylpyridin-2(1H)-one], the Ki was 4.68 nM.

Turning to `COc1ccc([C@H]2C[C@@H]2COc2nc(C)ncc2-c2ccc(=O)n(C(F)F)c2)nc1` [Example 20, 1-(difluoromethyl)-5-(4-(((1S,2S)-2-(5-methoxypyridin-2-yl)cyclopropyl)methoxy)-2-methylpyrimidin-5-yl)pyridin-2(1H)-one], the Ki worked out at 1.21 nM.
